Columns and labels:
Type in all cases: in vivo
Matricaria inodora [1] = test: Herbicidal activity, preemergence test; conditions: pre; sprayed onto soil, 800 g of active material per hectare; evaluated 3 weeks after treatment
Summary of the method: (§1)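 Acetone/TRITON X-155 formulation diluted in water, sprayed onto horticultural loam soon after sowing at 800 g active material per hectare in 900 litres per hectare. Visual 0-9 rating of stand, vigor, malformation, size and chlorosis versus untreated sown soil, scored 3 weeks after treatment.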

Galium aparine [2] = test: Herbicidal activity, preemergence test; conditions: pre; sprayed onto soil, 800 g of active material per hectare; evaluated 3 weeks after treatment
Summary of the method: as §1

Gossypium hirsutum [3] = test: Herbicidal activity, preemergence test; conditions: pre; sprayed onto soil, 800 g of active material per hectare; evaluated 3 weeks after treatment
Summary of the method: as §1

Ambrosia artemisifolia [4] = test: Herbicidal activity, preemergence test; conditions: pre; sprayed onto soil, 800 g of active material per hectare; evaluated 3 weeks after treatment
Summary of the method: as §1

Ipomoea hederacea [5] = test: Herbicidal activity, preemergence test; conditions: pre; sprayed onto soil, 800 g of active material per hectare; evaluated 3 weeks after treatment
Summary of the method: as §1

Chenopodium album [6] = test: Herbicidal activity, preemergence test; conditions: pre; sprayed onto soil, 800 g of active material per hectare; evaluated 3 weeks after treatment
Summary of the method: as §1

Setaria viridis [7] = test: Herbicidal activity, preemergence test; conditions: pre; sprayed onto soil, 800 g of active material per hectare; evaluated 3 weeks after treatment
Summary of the method: as §1

Alopecurus myosuroides [8] = test: Herbicidal activity, preemergence test; conditions: pre; sprayed onto soil, 800 g of active material per hectare; evaluated 3 weeks after treatment
Summary of the method: as §1

Veronica persica [9] = test: Herbicidal activity, preemergence test; conditions: pre; sprayed onto soil, 800 g of active material per hectare; evaluated 3 weeks after treatment
Summary of the method: as §1

Zea mays [10] = test: Herbicidal activity, preemergence test; conditions: pre; sprayed onto soil, 800 g of active material per hectare; evaluated 3 weeks after treatment
Summary of the method: as §1

Glycine max [11] = test: Herbicidal activity, preemergence test; conditions: pre; sprayed onto soil, 800 g of active material per hectare; evaluated 3 weeks after treatment
Summary of the method: as §1

Hordeum vulgare [12] = test: Herbicidal activity, preemergence test; conditions: pre; sprayed onto soil, 800 g of active material per hectare; evaluated 3 weeks after treatment
Summary of the method: as §1

Amaranthus retroflexus [13] = test: Herbicidal activity, preemergence test; conditions: pre; sprayed onto soil, 800 g of active material per hectare; evaluated 3 weeks after treatment
Summary of the method: as §1

Abutilon theophrasti [14] = test: Herbicidal activity, preemergence test; conditions: pre; sprayed onto soil, 800 g of active material per hectare; evaluated 3 weeks after treatment
Summary of the method: as §1

Lamium purpureum [15] = test: Herbicidal activity, preemergence test; conditions: pre; sprayed onto soil, 800 g of active material per hectare; evaluated 3 weeks after treatment
Summary of the method: as §1

Papaver rhoeas [16] = test: Herbicidal activity, preemergence test; conditions: pre; sprayed onto soil, 800 g of active material per hectare; evaluated 3 weeks after treatment
Summary of the method: as §1

Triticum aestivum [17] = test: Herbicidal activity, preemergence test; conditions: pre; sprayed onto soil, 800 g of active material per hectare; evaluated 3 weeks after treatment
Summary of the method: as §1

Stellaria media [18] = test: Herbicidal activity, preemergence test; conditions: pre; sprayed onto soil, 800 g of active material per hectare; evaluated 3 weeks after treatment
Summary of the method: as §1

Matricaria inodora [19] = test: Herbicidal activity, postemergence test; conditions: post; sprayed onto seedling plants, 800 g of active material per hectare; evaluated 2 weeks after treatment
Summary of the method: (§2)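 Spray dose 800 g a.i./ha in 900 L/ha; acetone stock with 0.4% Triton X-155, water-diluted. Pre: sown loam soil, read at 3 wk. Post: seedling plants, read at 2 wk. Visual 0-9 rating vs untreated.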

Galium aparine [20] = test: Herbicidal activity, postemergence test; conditions: post; sprayed onto seedling plants, 800 g of active material per hectare; evaluated 2 weeks after treatment
Summary of the method: as §2

Gossypium hirsutum [21] = test: Herbicidal activity, postemergence test; conditions: post; sprayed onto seedling plants, 800 g of active material per hectare; evaluated 2 weeks after treatment
Summary of the method: as §2

Ambrosia artemisifolia [22] = test: Herbicidal activity, postemergence test; conditions: post; sprayed onto seedling plants, 800 g of active material per hectare; evaluated 2 weeks after treatment
Summary of the method: as §2

Ipomoea hederacea [23] = test: Herbicidal activity, postemergence test; conditions: post; sprayed onto seedling plants, 800 g of active material per hectare; evaluated 2 weeks after treatment
Summary of the method: as §2

Chenopodium album [24] = test: Herbicidal activity, postemergence test; conditions: post; sprayed onto seedling plants, 800 g of active material per hectare; evaluated 2 weeks after treatment
Summary of the method: as §2

Setaria viridis [25] = test: Herbicidal activity, postemergence test; conditions: post; sprayed onto seedling plants, 800 g of active material per hectare; evaluated 2 weeks after treatment
Summary of the method: as §2

Alopecurus myosuroides [26] = test: Herbicidal activity, postemergence test; conditions: post; sprayed onto seedling plants, 800 g of active material per hectare; evaluated 2 weeks after treatment
Summary of the method: as §2

Veronica persica [27] = test: Herbicidal activity, postemergence test; conditions: post; sprayed onto seedling plants, 800 g of active material per hectare; evaluated 2 weeks after treatment
Summary of the method: as §2

Zea mays [28] = test: Herbicidal activity, postemergence test; conditions: post; sprayed onto seedling plants, 800 g of active material per hectare; evaluated 2 weeks after treatment
Summary of the method: as §2

Glycine max [29] = test: Herbicidal activity, postemergence test; conditions: post; sprayed onto seedling plants, 800 g of active material per hectare; evaluated 2 weeks after treatment
Summary of the method: as §2

Hordeum vulgare [30] = test: Herbicidal activity, postemergence test; conditions: post; sprayed onto seedling plants, 800 g of active material per hectare; evaluated 2 weeks after treatment
Summary of the method: as §2

Amaranthus retroflexus [31] = test: Herbicidal activity, postemergence test; conditions: post; sprayed onto seedling plants, 800 g of active material per hectare; evaluated 2 weeks after treatment
Summary of the method: as §2

Abutilon theophrasti [32] = test: Herbicidal activity, postemergence test; conditions: post; sprayed onto seedling plants, 800 g of active material per hectare; evaluated 2 weeks after treatment
Summary of the method: as §2

Lamium purpureum [33] = test: Herbicidal activity, postemergence test; conditions: post; sprayed onto seedling plants, 800 g of active material per hectare; evaluated 2 weeks after treatment
Summary of the method: as §2

Papaver rhoeas [34] = test: Herbicidal activity, postemergence test; conditions: post; sprayed onto seedling plants, 800 g of active material per hectare; evaluated 2 weeks after treatment
Summary of the method: as §2

Triticum aestivum [35] = test: Herbicidal activity, postemergence test; conditions: post; sprayed onto seedling plants, 800 g of active material per hectare; evaluated 2 weeks after treatment
Summary of the method: as §2

Stellaria media [36] = test: Herbicidal activity, postemergence test; conditions: post; sprayed onto seedling plants, 800 g of active material per hectare; evaluated 2 weeks after treatment
Summary of the method: as §2

| SMILES | MATIN control rating (0-9) (Matricaria inodora [1]) | GALAP control rating (0-9) (Galium aparine [2]) | GOSHI control rating (0-9) (Gossypium hirsutum [3]) | AMBEL control rating (0-9) (Ambrosia artemisifolia [4]) | IPOHE control rating (0-9) (Ipomoea hederacea [5]) | CHEAL control rating (0-9) (Chenopodium album [6]) | SETVI control rating (0-9) (Setaria viridis [7]) | ALOMY control rating (0-9) (Alopecurus myosuroides [8]) | VERPE control rating (0-9) (Veronica persica [9]) | ZEAMX control rating (0-9) (Zea mays [10]) | GLXMA control rating (0-9) (Glycine max [11]) | HORVW control rating (0-9) (Hordeum vulgare [12]) | AMARE control rating (0-9) (Amaranthus retroflexus [13]) | ABUTH control rating (0-9) (Abutilon theophrasti [14]) | LAMPU control rating (0-9) (Lamium purpureum [15]) | PAPRH control rating (0-9) (Papaver rhoeas [16]) | TRZAW control rating (0-9) (Triticum aestivum [17]) | STEME control rating (0-9) (Stellaria media [18]) | MATIN control rating (0-9) (Matricaria inodora [19]) | GALAP control rating (0-9) (Galium aparine [20]) | also measured |
| --- | --- | --- | --- | --- | --- | --- | --- | --- | --- | --- | --- | --- | --- | --- | --- | --- | --- | --- | --- | --- | --- |
| C[C@H](NC(=O)c1nnc(-c2ccccc2Cl)o1)c1ccccc1 [Example 21] | 6 (herbicidal effect) | 0 (no effect) | 0 (no effect) | 0 (no effect) | 1 (trace effect) | 2 (slight effect) | 1 (trace effect) | 0 (no effect) | 9 (complete kill) | 0 (no effect) | 0 (no effect) | 0 (no effect) | 3 (moderate effect) | 0 (no effect) | 5 (definite injury) | 9 (complete kill) | 0 (no effect) | 5 (definite injury) | 4 (injury) | 4 (injury) | GOSHI control rating (0-9) (Gossypium hirsutum [21]): 8 (approaching complete kill); AMBEL control rating (0-9) (Ambrosia artemisifolia [22]): 6 (herbicidal effect); IPOHE control rating (0-9) (Ipomoea hederacea [23]): 4 (injury); CHEAL control rating (0-9) (Chenopodium album [24]): 7 (good herbicidal effect); SETVI control rating (0-9) (Setaria viridis [25]): 6 (herbicidal effect); ALOMY control rating (0-9) (Alopecurus myosuroides [26]): 0 (no effect); VERPE control rating (0-9) (Veronica persica [27]): 7 (good herbicidal effect); ZEAMX control rating (0-9) (Zea mays [28]): 2 (slight effect); GLXMA control rating (0-9) (Glycine max [29]): 2 (slight effect); HORVW control rating (0-9) (Hordeum vulgare [30]): 1 (trace effect); AMARE control rating (0-9) (Amaranthus retroflexus [31]): 8 (approaching complete kill); ABUTH control rating (0-9) (Abutilon theophrasti [32]): 5 (definite injury); LAMPU control rating (0-9) (Lamium purpureum [33]): 6 (herbicidal effect); PAPRH control rating (0-9) (Papaver rhoeas [34]): 5 (definite injury); TRZAW control rating (0-9) (Triticum aestivum [35]): 2 (slight effect); STEME control rating (0-9) (Stellaria media [36]): 9 (complete kill) |
| C[C@H](NC(=O)c1nnc(-c2ccc(C(F)(F)F)cc2)o1)c1ccccc1 [Example 23] | 8 (approaching complete kill) | 0 (no effect) | 0 (no effect) | 0 (no effect) | 0 (no effect) | 8 (approaching complete kill) | 8 (approaching complete kill) | 4 (injury) | 9 (complete kill) | 1 (trace effect) | 0 (no effect) | 0 (no effect) | 9 (complete kill) | 5 (definite injury) | 7 (good herbicidal effect) | 9 (complete kill) | 0 (no effect) | 8 (approaching complete kill) | 8 (approaching complete kill) | 7 (good herbicidal effect) | GOSHI control rating (0-9) (Gossypium hirsutum [21]): 9 (complete kill); AMBEL control rating (0-9) (Ambrosia artemisifolia [22]): 8 (approaching complete kill); IPOHE control rating (0-9) (Ipomoea hederacea [23]): 8 (approaching complete kill); CHEAL control rating (0-9) (Chenopodium album [24]): 9 (complete kill); SETVI control rating (0-9) (Setaria viridis [25]): 9 (complete kill); ALOMY control rating (0-9) (Alopecurus myosuroides [26]): 3 (moderate effect); VERPE control rating (0-9) (Veronica persica [27]): 9 (complete kill); ZEAMX control rating (0-9) (Zea mays [28]): 3 (moderate effect); GLXMA control rating (0-9) (Glycine max [29]): 5 (definite injury); HORVW control rating (0-9) (Hordeum vulgare [30]): 4 (injury); AMARE control rating (0-9) (Amaranthus retroflexus [31]): 9 (complete kill); ABUTH control rating (0-9) (Abutilon theophrasti [32]): 9 (complete kill); LAMPU control rating (0-9) (Lamium purpureum [33]): 9 (complete kill); PAPRH control rating (0-9) (Papaver rhoeas [34]): 8 (approaching complete kill); TRZAW control rating (0-9) (Triticum aestivum [35]): 3 (moderate effect); STEME control rating (0-9) (Stellaria media [36]): 9 (complete kill) |

Reference: patent EP0726263A2, “Herbicidal (1,3,4)oxadiazoles and thiadiazoles” (American Cyanamid Company, priority 1995, dated 1996)
